Experiment [1] in a line: FRAP assay (ferric reducing ability). Particulars: for FRAP value: 37° C. for 10 minutes, absorbance at 593 nm, FeSO4 calibration, ascorbic acid control at 1 mg/mL, Table 2. The experiment is classed as biochemical. On the procedure:
FRAP assay of the samples was conducted by slightly modifying the method of Benzie and Strain (Benzie I F F, Strain J J. 1996. The ferric reducing ability of plasma (FRAP) as a measure of “Antioxidant power”: The FRAP assay. Anal Biochem 230: 70-79). The FRAP reagent was prepared by heating 25 mL acetate buffer (300 mM, pH 3.6) at 37′ C and adding a solution of 5 mL of 10 mM 2,4,6-tris(2-pyridyl)-s-triazine (TPTZ, Sigma) and 2.5 mL of 20 mM […] in 40 mM HCl thereto. 0.03 mL of the sample (Example 1 or Example 2) and 0.09 mL of distilled water were added to 0.9 mL of the prepared FRAP reagent, reaction was proceeded at 37° C. for 10 minutes and absorbance at 593 nm was measured using a spectrophotometer (Benchmark PLUS Bio-Rad). Distilled water, instead of the sample, was used as the blank. 1 mg/mL of ascorbic acid was used as a control group. A calibration equation for FeSO4 made by repetition at different concentrations of 0.125, 0.25, 0.5, 1 and 2 mM was obtained and measurement values of the samples were converted to FRAP values by applying the measurement values thereto. All measurements were repeated three times.

Experiment [2] is described as follows: DPPH radical scavenging assay. The experiment is classed as biochemical. Conditions: for IC50 of DPPH radical scavenging activity: FIGS. 15A and 15B; for Antioxidative activity (IC50 mg/mL): DPPH radical scavenging, absorbance at 517 nm, reacted in the dark one hour, repeated three times, Table 1. On the procedure: The antioxidant effect of synthesized taxifolin derivative was measured using a DPPH(1,1-diphenyl-2-picrylhydrazyl) radical (Blois M S. 1958. Antioxidant determination by the use of a stable free radical. Nature 25: 1199-1120). For measurement, different concentrations of 0.1 mL of the synthesized taxifolin derivatives were prepared and then mixed with 2.5 mL of ethanol. 0.5 mL of a 0.2 mM DPPH solution was added to the resulting mixture and reacted in the dark for one hour. Then, the absorbance of the reaction product was measured at 517 nm using a UV/Vis-spectrophotometer (BIO-RAD, USA). All tests were repeated three times, methanol was used as a blank sample and DPPH radical effect was calculated in accordance with the following Equation 1. DPPH radical scavenging activity was represented by IC50 (the concentration required for 50% inhibition). Scavenging effect (%)=(A−B)/A×100 [Equation 1]
where A=absorbance at 517 nm without test sample
where B=absorbance at 517 nm with test sample

As to `O=C(CCCCC1CCSS1)Oc1cc(OC(=O)CCCCC2CCSS2)c2c(c1)OC(c1ccc(OC(=O)CCCCC3CCSS3)c(OC(=O)CCCCC3CCSS3)c1)C(OC(=O)CCCCC1CCSS1)C2=O` (stereo not drawn) [Taxifolin penta lipoate, 2-(3,4-bis(5-(1,2-dithiolan-3-yl)pentanoyloxy)phenyl)-4-oxochroman-3,5,7-triyl tris(5-(1,2-dithiolan-3-yl)pentanoate)], the “FRAP value” in experiment [1] turned out to be 3.57 ± 0.146 mM. Further, in experiment [1] (FIG. 16, comparison among the samples), the “FRAP value, ranking in words” value is on record as “next highest value”. The “IC50 of DPPH radical scavenging activity” value is 0.22 ± 0.003 mg/mL in experiment [2] and “very low IC50” in experiment [2] (listed as Example 2).
Consider `CC1(C)SCCC(CCCCC(=O)O)S1` (stereo not drawn) [Lipoic acid (dithiol protection), 5-(2,2-dimethyl-1,3-dithian-4-yl)pentanoic acid], for which the “FRAP value” in experiment [1] came out at 0.74 ± 0.006 mM. Besides, in experiment [2], the “IC50 of DPPH radical scavenging activity” value is reported as “about 2,000 mg/ml”.
On to `OCCCCCC1CCSS1` (stereo not drawn) [Lipoic alcohol], for which the “FRAP value” in experiment [1] is 1.24 ± 0.007 mM. The “Antioxidative activity (IC50 mg/mL)” value in experiment [2] was 3.22 ± 0.05 mg/mL.
`O=C(O)CCCC[C@@H]1CCSS1` (racemic) [Lipoic acid]: the “FRAP value” in experiment [1] came to 1.14 ± 0.019 mM. In experiment [2], the “Antioxidative activity (IC50 mg/mL)” value was found to be 515.77 ± 5.41 mg/mL and the “IC50 of DPPH radical scavenging activity” value was “about 250 mg/ml”.
On to `O=C1O[C@H]([C@@H](O)CO)C(O)=C1O` [Ascorbic acid, ascorbic acid], for which the “FRAP value” in experiment [1] was 3.7 ± 0.007 mM.

Values taken from patent US9822104B2, “Taxifolin derivative with superior antioxidant effect and cosmetic composition containing the same” (Yeomyung Biochem Co., Ltd, priority 2015, dated 2017).
